Measurements published in patent US12077503B2, “Substituted cyclic amides and their use as herbicides” (FMC CORPORATION, priority 2015, dated 2024).

Legend:
Type in all cases: in vivo
[1] = system: Galium (catchweed bedstraw, Galium aparine); test: Test A postemergence; details: Galium, post-emergence, 240 h, Postemergence, read-out: Plant response rating, Galium
Summary of the method: (§1)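 Seeds sprayed preemergence with a directed soil spray, or plants at 2 to 10 cm height and one- to two-leaf stage sprayed postemergence, with test chemicals in a non-phytotoxic solvent mixture containing surfactant, in loam soil–sand blend. Injury rated visually against untreated controls after about 10 d in greenhouse, 0 (no effect) to 100 (complete control).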

[2] = system: giant foxtail (Setaria faberii); test: Test A postemergence; details: Setaria faberi, post-emergence, 240 h, Postemergence, read-out: Plant response rating, Foxtail, Giant
Summary of the method: as §1

[3] = system: ryegrass, Italian (Italian ryegrass, Lolium multiflorum); test: Test A postemergence; details: Lolium multiflorum, post-emergence, 240 h, Postemergence, read-out: Plant response rating, Ryegrass, Italian
Summary of the method: as §1

[4] = system: pigweed (Amaranthus retroflexus); test: Test A postemergence; details: Amaranthus retroflexus, post-emergence, 240 h, Postemergence, read-out: Plant response rating, Pigweed
Summary of the method: as §1

corn (Zea mays) = test: Test A postemergence; details: Zea mays, post-emergence, 240 h, Postemergence
Summary of the method: as §1

Kochia (Kochia scoparia) [5] = test: Test A postemergence; details: Bassia scoparia, post-emergence, 240 h, Postemergence, read-out: Plant response rating, Kochia
Summary of the method: as §1

[6] = system: blackgrass (Alopecurus myosuroides); test: Test A postemergence; details: Alopecurus myosuroides, post-emergence, 240 h, Postemergence, read-out: Plant response rating, Blackgrass
Summary of the method: as §1

[7] = system: ragweed (common ragweed, Ambrosia elatior); test: Test A postemergence; details: Ambrosia artemisiifolia, post-emergence, 240 h, Postemergence, read-out: Plant response rating, Ragweed
Summary of the method: as §1

[8] = system: barnyardgrass (Echinochloa crus-galli); test: Test A postemergence; details: Echinochloa crus-galli, post-emergence, 240 h, Postemergence, read-out: Plant response rating, Barnyardgrass
Summary of the method: as §1

[9] = system: wheat (Triticum aestivum); test: Test A postemergence; details: Triticum aestivum, post-emergence, 240 h, Postemergence, read-out: Plant response rating, Wheat
Summary of the method: as §1

[10] = system: giant foxtail (Setaria faberii); test: Test A preemergence; details: Setaria faberi, pre-emergence, 240 h, 0 to 100 scale (0 no effect, 100 complete control), read-out: Plant response rating, Foxtail, Giant
Summary of the method: as §1

[11] = system: ryegrass, Italian (Italian ryegrass, Lolium multiflorum); test: Test A preemergence; details: Lolium multiflorum, pre-emergence, 240 h, 0 to 100 scale (0 no effect, 100 complete control), read-out: Plant response rating, Ryegrass, Italian
Summary of the method: as §1

[12] = system: pigweed (Amaranthus retroflexus); test: Test A preemergence; details: Amaranthus retroflexus, pre-emergence, 240 h, 0 to 100 scale (0 no effect, 100 complete control), read-out: Plant response rating, Pigweed
Kochia (Kochia scoparia) [13] = test: Test A preemergence; details: Bassia scoparia, pre-emergence, 240 h, 0 to 100 scale (0 no effect, 100 complete control), read-out: Plant response rating, Kochia
Summary of the method: as §1

[14] = system: ragweed (common ragweed, Ambrosia elatior); test: Test A preemergence; details: Ambrosia artemisiifolia, pre-emergence, 240 h, 0 to 100 scale (0 no effect, 100 complete control), read-out: Plant response rating, Ragweed
Summary of the method: as §1

[15] = 125 g ai/ha, visual injury after approx. 10 d, 0 to 100 scale, 0 no effect, 100 complete control
[16] = 500 g ai/ha, visual injury, 0 to 100 scale (0 no effect, 100 complete control), approx. 10 d

**Q.** What does the source list for `CC(C)c1cccc([C@H]2CN(C)C(=O)[C@@H]2C(=O)Nc2cccc(F)c2F)c1` [Compound 1388]?
**A.** pest or weed control at 125 g/ha [1, 15]: 50%; pest or weed control at 500 g/ha [1, 16]: 50%; pest or weed control at 125 g/ha [2, 15]: 90%; pest or weed control at 500 g/ha [2, 16]: 90%; pest or weed control at 125 g/ha [3, 15]: 60%; pest or weed control at 500 g/ha [3, 16]: 90%; pest or weed control at 125 g/ha [4, 15]: 40%; pest or weed control at 500 g/ha [4, 16]: 50%; Corn plant response rating (crop injury, 0 = no effect, 100 = complete kill) at 125 g/ha (corn (Zea mays); [15]): 60%; Corn plant response rating (crop injury, 0 = no effect, 100 = complete kill) at 500 g/ha (corn (Zea mays); [16]): 80%; pest or weed control at 125 g/ha (Kochia (Kochia scoparia) [5]; [15]): 30%; pest or weed control at 500 g/ha (Kochia (Kochia scoparia) [5]; [16]): 50%; pest or weed control at 125 g/ha [6, 15]: 70%; pest or weed control at 500 g/ha [6, 16]: 90%; pest or weed control at 125 g/ha [7, 15]: 0%; pest or weed control at 500 g/ha [7, 16]: 50%; pest or weed control at 125 g/ha [8, 15]: 100%; pest or weed control at 500 g/ha [8, 16]: 100%; plant injury at 125 g/ha [9, 15]: 50%; plant injury at 500 g/ha [9, 16]: 60%; pest or weed control at 500 g/ha ([10]; 500 g ai/ha, preemergence): 100%; pest or weed control at 125 g/ha ([10]; Preemergence, 125 g ai/ha): 100%; pest or weed control at 500 g/ha ([11]; 500 g ai/ha, preemergence): 100%; pest or weed control at 125 g/ha ([11]; Preemergence, 125 g ai/ha): 90%; pest or weed control at 500 g/ha ([12]; 500 g ai/ha, preemergence): 70%; pest or weed control at 125 g/ha ([12]; Preemergence, 125 g ai/ha): 30%; pest or weed control at 500 g/ha (Kochia (Kochia scoparia) [13]; 500 g ai/ha, preemergence): 90%; pest or weed control at 125 g/ha (Kochia (Kochia scoparia) [13]; Preemergence, 125 g ai/ha): 80%; pest or weed control at 500 g/ha ([14]; 500 g ai/ha, preemergence): 70%; pest or weed control at 125 g/ha ([14]; Preemergence, 125 g ai/ha): 0%
